# Experimental data published in article PMC8809056 (Science (New York, N.y.), 2021).
# Assays:
# [1] = tested on: OC43; experiment: OC43 infection of A549 cells, viral nucleoprotein staining; assay type: cell-based, human beta coronavirus OC43; conditions: for Inhibition of OC43 infection, dose-response validation (in words): A549 cells; for EC50: Betacoronavirus 1, OC43, A549, 96 h, read-out: EC50 against OC43 infection
# [2] = tested on: 3CL; parameters: method as in doi:10.1101/2020.08.29.272864; conditions: read-out: Previously reported IC50 in cells; cited from earlier work
# [3] = mouse, in vivo
# [4] = tested on: other RNA viruses; experiment: Replication of other RNA viruses; assay type: cell-based
# [5] = feline model of asthma; cited from earlier work
# [6] = tested on: SARS-CoV-2 (nCoV/Washington/1/2020); assay type: in vivo, mice
# [7] = target: T1, PLpro (Severe acute respiratory syndrome coronavirus 2, UniProt P0DTD1); experiment: PLpro activity assay; assay type: biochemical, SARS-CoV-2; conditions: fig. S7
# T1 construct: the papain-like protease, PLpro, a domain within nsp3
# [8] = target: T2, SARS-CoV-2 3CL (Severe acute respiratory syndrome coronavirus 2, UniProt P0DTD1); experiment: Fluorescence-based 3CL enzyme activity assay in vitro (enzyme kinetics, Dixon plot); assay type: biochemical; conditions: range of substrate and inhibitor concentrations, SigmaPlot fit
# T2 construct: the main viral protease, known as Mpro, 3CLpro, or nonstructural protein 5 (nsp5); made in house
# Excerpt: Individual measurements are shown as semitransparent gray circles. Error bars depict means ± SEM. […] Individual measurements are shown as circles. […] RFU, relative fluorescence units.
# To test this, we measured the rate of the 3CL enzymatic reaction in vitro using a fluorescence-based enzyme activity assay ([29]). We measured the rate of 3CL activity in a range of substrate and inhibitor concentrations and fitted the data to equations describing different modes of inhibition using SigmaPlot Enzyme Kinetics Module 1.3 (see methods).
# [9] = tested on: multiple picornaviruses; experiment: Replication of picornaviruses; assay type: cell-based; conditions: fig. S8B
# [10] = target: 3C protease (Coxsackievirus B3, UniProt P03313); assay type: cell-based, picornaviruses
# [11] = 25 mg kg−1 twice a day, day six
# Sequence of 3C protease (P03313 1541-1723 limits assumed): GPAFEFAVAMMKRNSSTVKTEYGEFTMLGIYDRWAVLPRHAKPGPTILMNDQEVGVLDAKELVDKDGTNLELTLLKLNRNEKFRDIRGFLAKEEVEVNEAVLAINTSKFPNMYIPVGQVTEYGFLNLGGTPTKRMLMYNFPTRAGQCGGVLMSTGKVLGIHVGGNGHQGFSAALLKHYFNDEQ
smiles,measurement,setting,value
Cc1ccc(NC(=O)c2ccc(CN3CCNCC3)cc2)cc1Nc1nc(-c2cccnc2)cs1 [AB3280],"Inhibition of OC43 infection, dose-response validation (in words)",[1],maintains its antiviral activity
C[C@@H]1[C@H](O)[C@@H](C)/C=C/C=C/C=C/C=C/C=C/C=C/C=C/[C@H](O[C@@H]2O[C@H](C)[C@@H](O)[C@H](N)[C@@H]2O)C[C@@H]2O[C@](O)(C[C@@H](O)C[C@@H](O)[C@H](O)CC[C@@H](O)C[C@@H](O)CC(=O)O[C@H]1C)C[C@H](O)[C@H]2C(=O)O [Amphotericin B],EC50,[1],190 nM
Cc1ccc(NC(=O)c2ccc(CN3CC[C@H](N(C)C)C3)c(C(F)(F)F)c2)cc1Nc1nccc(-c2cncnc2)n1 [Bafetinib],EC50,[1],2100 nM
CCCCOC(=O)c1ccc(N)cc1 [Butamben],EC50,[1],3100 nM
CCCCOC(=O)c1ccc(O)cc1 [Butylparaben],EC50,[1],1700 nM
COc1cc2c(Oc3ccc4[nH]c(C)cc4c3F)ncnc2cc1OCCCN1CCCC1 [Cediranib],EC50,[1],520 nM
COc1ccc2cc1Oc1ccc(cc1)C[C@H]1c3c(cc4c(c3Oc3cc5c(cc3OC)CCN(C)[C@@H]5C2)OCO4)CCN1C [Cepharanthine],EC50,[1],770 nM
CN(C)CCCN1c2ccccc2CCc2ccc(Cl)cc21 [Clomipramine],OC43 infection in drug-repurposing screen,"[1]; 10 μM, 4 days",top hits
COC(=O)N[C@H](C(=O)N1CCC[C@H]1c1nc(-c2ccc3c(c2)O[C@@H](c2ccccc2)n2c-3cc3cc(-c4c[nH]c([C@@H]5CCCN5C(=O)[C@@H](NC(=O)OC)C(C)C)n4)ccc32)c[nH]1)C(C)C [Elbasvir],EC50,[1],170 nM
OCCN1CCN(CCC=C2c3ccccc3Sc3ccc(C(F)(F)F)cc32)CC1 [Flupenthixol],EC50,[1],1800 nM
O=C(Oc1cncc(Cl)c1)c1cccc2[nH]ccc12 [GRL-0496],IC50,[2],5000 nM
CS(=O)(=O)CCNCc1ccc(-c2ccc3ncnc(Nc4ccc(OCc5cccc(F)c5)c(Cl)c4)c3c2)o1 [Lapatinib],EC50,[1],3100 nM
Cc1ccc(NC(=O)c2ccc(CN3CCN(C)CC3)cc2)cc1Nc1nc(-c2cccnc2)cs1 [Masitinib],Tolerability of dose,[3],"well tolerated, with minimal weight loss"
same,EC50,[1],2100 nM
same,Effect on replication of other RNA viruses,[4],not the replication of other RNA viruses
same,Airway inflammation and lung functions,[5],decrease airway inflammation and improve lung functions
same,Reduction in viral titers in the lungs and nose (log),[6]; [11],greater than two-log reduction
same,Reduction of the viral load,[6]; [11],> 99%
same,"Concentrations of proinflammatory cytokines (such as IL-1β, IFN-γ) in the lungs",[6]; day six,significantly reduced
same,Overall lung pathology,"[6]; day six, blindly scored 0 to 4",improved overall lung pathology
same,Reduction in viral titers in the lungs,"[6]; mouse, in vivo",> 200 fold
same,Reduction in viral titers in the nose,"[6]; mouse, in vivo",> 200 fold
same,"Survival, weight loss and clinical scores",[6]; up to 10 days,improvements in survival
same,Effect on PLpro activity,[7],no effect
same,Mode of 3CL inhibition,[8],competitive inhibition gave the best fit
same,Effect on replication of picornaviruses,[9],effective in blocking the replication of multiple picornaviruses
same,Effect on 3C protease activity,[10],significantly inhibited the activity of the 3C protease
O=C(c1ccc(OCCN2CCCCC2)cc1)c1c(-c2ccc(O)cc2)sc2cc(O)ccc12 [Raloxifene],EC50,[1],2700 nM
CCC(CC)COC(=O)[C@H](C)N[P@](=O)(OC[C@H]1O[C@@](C#N)(c2ccc3c(N)ncnn23)[C@H](O)[C@@H]1O)Oc1ccccc1 [Remdesivir],EC50,[1],960 nM
COC[C@H]1C[C@@H](c2nc(-c3ccc4c(c3)COc3cc5c(ccc6nc([C@@H]7CC[C@H](C)N7C(=O)[C@@H](NC(=O)OC)C(C)C)[nH]c65)cc3-4)c[nH]2)N(C(=O)[C@H](NC(=O)OC)c2ccccc2)C1 [Velpatasvir],EC50,[1],2000 nM
CC[C@H]1OC(=O)[C@H](C)[C@@H](O[C@H]2C[C@@](C)(OC)[C@@H](O)[C@H](C)O2)[C@H](C)[C@@H](O[C@@H]2O[C@H](C)C[C@H](N(C)C)[C@H]2O)[C@](C)(O)C[C@@H](C)C(=O)[C@H](C)[C@@H](O)[C@]1(C)O [erythromycin],"Inhibition of OC43 infection, dose-response validation (in words)",[1],failed validation
Cc1ccc(O)c([C@H](CCN(C(C)C)C(C)C)c2ccccc2)c1 [tolertodine],"Inhibition of OC43 infection, dose-response validation (in words)",[1],weak inhibitors of OC43 infection
